Test results published in article PMC7268545, “Development of a QPatch-Automated Electrophysiology Assay for Identifying TMEM16A Small-Molecule Inhibitors” (Assay and Drug Development Technologies, 2020).
Where two headings read alike, the source gives them in different places.

Biological target: T1, human ANO1 channel (isoform acd) (Homo sapiens, UniProt Q5XXA6)
T1 construct: host or cells: HEK293T
T1 sequence (Q5XXA6 1-986): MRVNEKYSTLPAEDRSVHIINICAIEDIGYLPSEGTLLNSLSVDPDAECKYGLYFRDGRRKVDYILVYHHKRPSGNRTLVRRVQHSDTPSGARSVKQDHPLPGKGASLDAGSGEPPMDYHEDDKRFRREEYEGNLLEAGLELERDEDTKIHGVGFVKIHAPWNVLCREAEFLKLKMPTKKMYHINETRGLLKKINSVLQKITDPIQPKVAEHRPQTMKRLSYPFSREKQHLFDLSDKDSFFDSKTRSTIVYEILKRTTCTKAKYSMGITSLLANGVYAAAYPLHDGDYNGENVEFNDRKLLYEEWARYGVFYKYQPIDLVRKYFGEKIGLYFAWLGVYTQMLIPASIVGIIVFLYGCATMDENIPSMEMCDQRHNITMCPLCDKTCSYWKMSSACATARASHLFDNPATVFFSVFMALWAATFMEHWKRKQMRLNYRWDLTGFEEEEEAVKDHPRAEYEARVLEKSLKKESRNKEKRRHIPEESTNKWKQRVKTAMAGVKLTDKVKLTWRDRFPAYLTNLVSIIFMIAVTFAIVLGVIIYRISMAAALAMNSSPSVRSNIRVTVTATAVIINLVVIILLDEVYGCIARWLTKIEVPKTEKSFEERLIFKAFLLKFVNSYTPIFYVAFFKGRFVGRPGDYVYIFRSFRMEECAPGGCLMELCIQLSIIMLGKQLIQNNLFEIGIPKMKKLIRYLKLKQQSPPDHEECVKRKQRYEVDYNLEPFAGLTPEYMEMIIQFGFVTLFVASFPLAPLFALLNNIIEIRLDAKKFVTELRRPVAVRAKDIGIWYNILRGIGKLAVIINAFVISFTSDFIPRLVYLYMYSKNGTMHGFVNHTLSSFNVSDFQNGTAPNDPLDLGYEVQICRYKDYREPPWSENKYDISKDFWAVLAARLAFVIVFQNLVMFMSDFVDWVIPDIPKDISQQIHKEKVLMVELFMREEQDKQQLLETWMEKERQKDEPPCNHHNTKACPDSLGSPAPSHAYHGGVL
Assay: QPatch-48 single-concentration/multiple-addition (extended incubation) protocol
Assay type: cell-based
Description: As mentioned, due to the nature of the channel and its rundown issues, time limitations exist for recording. Therefore, each concentration of compound is added to the cell for a duration of 60 s. It is possible that the IC50 is shifted for those compounds that require a longer time to act on the channel. To account for this, a single-concentration/multiple-addition protocol was established (Fig. 6). […] This led us to wonder if we were missing the full response to the concentration before the next liquid period began and the more concentrated, cumulative addition was applied to the cell. The original application protocol was amended to allow for two 4-min incubations with the same concentration of compound. The total length of the assay is roughly 15 min, with two 1-min saline additions to stabilize current, two 1-min vehicle additions to account for any DMSO effects, and two 4-min compound additions, ending with two 1-min saline additions to look for washout effects. The same IV voltage protocol was used as well as the same whole-cell conditions and solutions. When niclosamide was run with this extended incubation protocol, the IC50 was four times as potent (Fig. 6), aligning nicely with the other in-house assays that were run. A DMSO condition was included to account for any rundown that occurred, with the result of 92% current remaining at the end of the assay. Therefore, the block observed with niclosamide additions was not due to rundown. When 240 nM was added, the current plateaued at ∼60% current amplitude. […] Any compounds that result in partial inhibition with the original assay can be run on the multiple-addition assay to see if they require more time to inhibit the channel.
Fig. 6. Current time plots of the modified protocol with multiple additions of a single concentration. Top: IT plot when 240 nM niclosamide is added to a cell. Bottom: IT plot when 1.2 μM niclosamide is added to a cell.

- current amplitude at plateau (240 nM): ~60%
- block in current after first 4-min incubation (1.2 μM, after first addition): 50%
- final block after second addition (1.2 μM, after second 4-min addition): 78%
- IC50 (Fig. 6 table in picture, read-out: IC50, Single Concentration- Multiple Additions): 352 nM
- IC50 (single concentration, multiple additions, Fig. 6 curve, read-out: IC50, modified single-concentration assay): 352 nM
- IC50 (two 4-min additions of the same concentration, n = 2, read-out: final IC50 (mean ± SD)): 221 ± 185 nM
SMILES: O=C(Nc1ccc([N+](=O)[O-])cc1Cl)c1cc(Cl)ccc1O [Niclosamide]
